“Also recorded” adds a separate entry of the source. Like-named read-outs stand apart in the source and are kept apart here.
Assays:
[1] = Water Vapor Sorption isotherm (25° C., SMS DVS); type: physicochemical; conditions: for Hygroscopicity classification acc. to Ph. Eur. criteria: up to 98% RH
Source text: The crystalline modifications of the present invention can be characterized according to standard methods which can be found e.g. in Rolf Hilfiker, ‘Polymorphism in the Pharmaceutical Industry’, Wiley-VCH, Weinheim 2006, and references therein, e.g. X-Ray diffraction (XRD; chapter 6), IR and Raman spectroscopy (chapter 5), Differential Scanning calorimetry (DSC) and Thermogravimetric Analysis (TGA) (chapter 3), Water Vapour Sorption Studies (chapter 9), or which can be found e.g. in H. G. Brittain (editor), Polymorphism in Pharmaceutical Solids, Vol. 95, Marcel Dekker Inc., New York 1999 (chapter 6: all there mentioned techniques).
FIG. 6 depicts the Water Vapour Sorption Isotherm (25° C.) (SMS DVS 1) of crystalline modification A1 of 3-(1-{3-[5-(1-methyl-piperidin-4-ylmethoxy)-pyrimidin-2-yl]-benzyl}-6-oxo-1,6-dihydro-pyridazin-3-yl)-benzonitrile hydrochloride anhydrate.
FIG. 12 depicts the Water Vapour Sorption Isotherm (25° C.) (SMS DVS Intrinsic) of crystalline modification H1 of 3-(1-{3-[5-(1-methyl-piperidin-4-ylmethoxy)-pyrimidin-2-yl]-benzyl}-6-oxo-1,6-dihydro-pyridazin-3-yl)-benzonitrile hydrochloride hydrate.
FIG. 18 depicts the Water Vapour Sorption Isotherm (25° C.) (SMS DVS Advantage) of crystalline modification NF3 of 3-(1-{3-[5-(1-methyl-piperidin-4-ylmethoxy)-pyrimidin-2-yl]-benzyl}-6-oxo-1,6-dihydro-pyridazin-3-yl)-benzonitrile hydrochloride hydrate.
FIG. 25 depicts the Water Vapour Sorption Isotherm (25° C.) (SMS DVS Intrinsic) of crystalline modification H2 of 3-(1-{3-[5-(1-methyl-piperidin-4-ylmethoxy)-pyrimidin-2-yl]-benzyl}-6-oxo-1,6-dihydro-pyridazin-3-yl)-benzonitrile hydrochloride monohydrate.
FIG. 33 depicts the Water Vapour Sorption Isotherm (25° C.) (SMS DVS Intrinsic) of crystalline modification NF6 of 3-(1-{3-[5-(1-methyl-piperidin-4-ylmethoxy)-pyrimidin-2-yl]-benzyl}-6-oxo-1,6-dihydro-pyridazin-3-yl)-benzonitrile hydrochloride anhydrate.
FIG. 38 depicts the Water Vapour Sorption Isotherm (25° C.) (SMS DVS Intrinsic) of crystalline modification NF2 of 3-(1-{3-[5-(1-methyl-piperidin-4-ylmethoxy)-pyrimidin-2-yl]-benzyl}-6-oxo-1,6-dihydro-pyridazin-3-yl)-benzonitrile hydrochloride hydrate.

[2] = Kinetic solubility (after 60 minutes) in 0.1 N HCl; conditions: 0.1 N HCl (pH 1.0); for Kinetic Solubility (after 60 minutes): room temperature (approx. 20-25° C.)
[3] = Thermodynamic solubility in 0.1 N HCl at 37° C.; conditions: 0.1 N HCl (pH 1.0); for Thermodynamic Solubility: 37° C.
[4] = Solubility in Simulated Gastric Fluid (acc. to USP); conditions: 20 °C, thermodynamic from solid
[5] = Competitive binary slurry conversion experiments (thermodynamic stability of hydrate forms); conditions: different solvents at 25° C. and 50° C.
[6] = pH 1

CN1CCC(COc2cnc(-c3cccc(Cn4nc(-c5cccc(C#N)c5)ccc4=O)c3)nc2)CC1.Cl [crystalline modification A1, 3-(1-{3-[5-(1-methyl-piperidin-4-ylmethoxy)-pyrimidin-2-yl]-benzyl}-6-oxo-1,6-dihydro-pyridazin-3-yl)-benzonitrile hydrochloride anhydrate]
Hygroscopic behavior ([1]; at 98% RH): strongly hygroscopic | Water uptake level ([1]; at 98% relative humidity): > 15 wt % | Water uptake upon adsorption ([1]; range 0-90% relative humidity): very small water uptake levels

CN1CCC(COc2cnc(-c3cccc(Cn4nc(-c5cccc(C#N)c5)ccc4=O)c3)nc2)CC1.Cl.O [crystalline modification H1, 3-(1-{3-[5-(1-methyl-piperidin-4-ylmethoxy)-pyrimidin-2-yl]-benzyl}-6-oxo-1,6-dihydro-pyridazin-3-yl)-benzonitrile hydrochloride hydrate]
Water uptake level ([1]; at 80% RH): > 15 wt % | Hygroscopic behaviour ([1]; relative humidity levels >70%): strongly hygroscopic | Kinetic Solubility (after 60 minutes) ([2]; hydrochloride hydrate): approx. 3 μg/mL | Solubility compared to crystalline modification H2 ([2]; kinetic solubility): significantly increased solubility

CN1CCC(COc2cnc(-c3cccc(Cn4nc(-c5cccc(C#N)c5)ccc4=O)c3)nc2)CC1.Cl.O [crystalline modification H2, 3-(1-{3-[5-(1-methyl-piperidin-4-ylmethoxy)-pyrimidin-2-yl]-benzyl}-6-oxo-1,6-dihydro-pyridazin-3-yl)-benzonitrile hydrochloride monohydrate]
Behaviour of hydrate water under dry RH conditions ([1]; hydrochloride monohydrate): no loss of hydrate water | Hygroscopicity classification acc. to Ph. Eur. criteria ([1]; hydrochloride monohydrate): non-hygroscopic | Water uptake ([1]; up to 98% relative humidity (RH range 0-98%), hydrochloride monohydrate): small water uptake levels; also recorded: very small water uptake levels | Thermodynamic Solubility ([3]; hydrochloride monohydrate): approx. 28 μg/mL | Kinetic Solubility (after 60 minutes) ([2]; hydrochloride monohydrate): approx. 0.3 μg/mL | solubility [4]: ~20 µg/mL | Thermodynamic stability compared to other hydrate forms H1 and NF3 [5]: thermodynamically stable hydrate form

CN1CCC(COc2cnc(-c3cccc(Cn4nc(-c5cccc(C#N)c5)ccc4=O)c3)nc2)CC1.Cl.O [crystalline modification NF2, 3-(1-{3-[5-(1-methyl-piperidin-4-ylmethoxy)-pyrimidin-2-yl]-benzyl}-6-oxo-1,6-dihydro-pyridazin-3-yl)-benzonitrile hydrochloride hydrate]
Weight loss in water vapor sorption ([1]; initial 40% RH sorption stage): ~10 wt %

CN1CCC(COc2cnc(-c3cccc(Cn4nc(-c5cccc(C#N)c5)ccc4=O)c3)nc2)CC1.Cl.O [crystalline modification NF3, 3-(1-{3-[5-(1-methyl-piperidin-4-ylmethoxy)-pyrimidin-2-yl]-benzyl}-6-oxo-1,6-dihydro-pyridazin-3-yl)-benzonitrile hydrochloride hydrate]
Water uptake level ([1]; at 98% relative humidity): approx. 9 wt % | Behaviour of hydrate water under dry RH conditions ([1]; hydrochloride hydrate): dehydration of hydrate water occurs | Hygroscopicity classification acc. to Ph. Eur. criteria ([1]; hydrochloride hydrate): slightly-hygroscopic | Thermodynamic Solubility ([3]; hydrochloride hydrate): approx. 70 μg/mL | Solubility compared to crystalline modification H2 ([3]; thermodynamic solubility): significantly increased solubility

CN1CCC(COc2cnc(-c3cccc(Cn4nc(-c5cccc(C#N)c5)ccc4=O)c3)nc2)CC1.Cl [crystalline modification NF6, 3-(1-{3-[5-(1-methyl-piperidin-4-ylmethoxy)-pyrimidin-2-yl]-benzyl}-6-oxo-1,6-dihydro-pyridazin-3-yl)-benzonitrile hydrochloride anhydrate]
Water uptake ([1]; 2nd adsorption cycle, up to 70% RH): approx. 8 wt % | Water uptake in initial sorption stage ([1]; initial sorption stage at 40% relative humidity): pronounced water uptake | Thermodynamic Solubility [6]: > 200 µg/mL
